Data set [1] in a line: Toxicology study (SRI international). To be noted: in vivo; read-out: no observed adverse effect level (NOAEL). From the text:
(§1) In this study, we have identified WRR-483, as an effective agent to treat acute Chagas' disease in a murine model. […] The crystal structure of WRR-483 complexed to cruzain was solved and established the binding mode of the inhibitor to the enzyme. This structure was highlighted by the formation of a salt bridge between the guanidine moiety of the inhibitor and Glu208, but in a different conformation when compared to another structure of cruzain bound to a different arginine-containing inhibitor. […] The no observed adverse effect level (NOAEL) is higher than 100 mg/kg. […] Further studies to understand the precise mechanism of trypanocidal action of WRR-483 and design of analogs with improved bioavailability are currently underway.

The next data set has as its target T1, Cathepsin V (Homo sapiens, UniProt O60911).
T1 construct: Reaction Biology Corp (screening service)
The data set can be described thus: Protease inhibition profiling (Reaction Biology Corp): Cathepsin V. In kind it is biochemical. To be noted: read-out: IC50, Cathepsin V.

Data set [2] is described as follows: Pharmacokinetic study (SRI international). To be noted: in vivo.
Source text: as §1

The target of a further data set is T2, tbcatB (Trypanosoma brucei, UniProt Q6R7Z5).
T2 construct: made in house
T2 sequence (Q6R7Z5 23-340): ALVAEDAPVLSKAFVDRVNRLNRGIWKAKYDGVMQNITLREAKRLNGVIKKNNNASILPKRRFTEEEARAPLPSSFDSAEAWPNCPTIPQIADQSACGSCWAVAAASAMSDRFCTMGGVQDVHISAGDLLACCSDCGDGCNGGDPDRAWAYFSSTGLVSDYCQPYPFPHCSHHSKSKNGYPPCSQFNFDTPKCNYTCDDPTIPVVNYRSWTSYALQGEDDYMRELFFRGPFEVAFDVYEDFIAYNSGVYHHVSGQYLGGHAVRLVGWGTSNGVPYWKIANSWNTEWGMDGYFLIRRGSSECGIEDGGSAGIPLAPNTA
Nature of the data set: tbcatB enzyme assay. In kind it is biochemical. As to the method: (§2) Cruzain[27],[28], rhodesain [29], and tbcatB [30] were recombinantly expressed as described previously. TbcatB assays were performed as described previously.[31] Cruzain (2 nM) or rhodesain (3 nM) was incubated with 0.5 to 10 µM inhibitor concentration in 100 mM sodium acetate at pH 5.5, containing 5 mM DTT (buffer A) for 5 min at room temperature. Then buffer A containing Z-Phe-Arg-AMC (Bachem, K M = 1 µM) was added to enzyme inhibitor to give 20 µM substrate concentration in 200 µL, and the increase in fluorescence (excitation at 355 nm and emission at 460 nm) was followed with an automated microtiter plate spectrofluorometer (Molecular Devices, Flex station). Inhibitor stock solutions were prepared at 20 mM in DMSO, and serial dilutions were made in DMSO (0.7% DMSO in assay). Controls were performed using enzyme alone and enzyme with DMSO. IC50 values were determined graphically using inhibitor concentrations in the linear portion of a plot of inhibition versus log[I] (seven concentrations tested with at least two in the linear range).
(§3) Inhibitor dilutions which produce simple exponential progress curves over a wide range of k obs, were used to determine kinetic parameters. The value of k obs, the rate constant for loss of enzyme activity, was determined from an equation for pseudo first order dynamics using Prism 4.0 (GraphPad). When k obs varied linearly with inhibitor concentration, k ass was determined by linear regression analysis. If the variation was hyperbolic, indicating saturation inhibition kinetics, k inact and K i were determined from an equation describing a two-step irreversible inhibitor mechanism [k obs = k inact [I]o/([I]o+Ki* (1+[S]o/K M))] and non-linear regression analysis Prism 4.0.[32] All values were corrected for substrate concentration.

For a further data set, the system named is EhCP1. To be noted: cited from earlier work.
Another data set concerns the target T3, Cathepsin B (Homo sapiens, UniProt P07858).
T3 construct: Reaction Biology Corp (screening service)
Nature of the data set: Protease inhibition profiling (Reaction Biology Corp): Cathepsin B. In kind it is biochemical.

For another data set, the target named is T4, Rhodesain (Trypanosoma brucei rhodesiense, UniProt Q95PM0).
T4 construct: made in house
T4 sequence (Q95PM0 entry or part of it): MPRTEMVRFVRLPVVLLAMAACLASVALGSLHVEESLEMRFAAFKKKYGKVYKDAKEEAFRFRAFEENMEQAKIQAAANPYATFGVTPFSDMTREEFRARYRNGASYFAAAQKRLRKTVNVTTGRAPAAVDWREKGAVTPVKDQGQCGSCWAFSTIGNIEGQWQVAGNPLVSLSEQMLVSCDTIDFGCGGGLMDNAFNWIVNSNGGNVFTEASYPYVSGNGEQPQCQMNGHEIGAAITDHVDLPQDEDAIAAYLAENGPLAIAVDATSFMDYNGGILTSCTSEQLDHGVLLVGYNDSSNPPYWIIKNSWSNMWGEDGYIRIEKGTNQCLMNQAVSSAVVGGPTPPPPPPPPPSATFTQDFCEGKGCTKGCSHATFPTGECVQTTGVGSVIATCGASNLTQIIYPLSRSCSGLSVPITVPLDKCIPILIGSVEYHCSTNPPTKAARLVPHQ
The data set can be described thus: Rhodesain enzyme assay (acetate buffer pH 5.5, Z-Phe-Arg-AMC). In kind it is biochemical, T. brucei. As to the method: as §2, §3

The test system of data set [3] is T. cruzi infection in BESM cells. Nature of the data set: Dose-response against T. cruzi infection in BESM cells. In kind it is cell-based, Trypanosoma cruzi CA-I/72. The conditions noted are these: Trypanosoma cruzi, 72 h. As to the method:
Monolayers were then infected with 1000 trypomastigotes/well of CA-I/72 T. cruzi for 2 h at 37°C. […] Cultures were then incubated for 72 h at 37°C in a humidified atmosphere with 5% CO2. Cultures were next fixed in 4% fresh paraformaldehyde in PBS, stained with DAPI, and counted under a fluorescence microscope (400×). Mean numbers of parasites per cell (±SE) were calculated as previously reported (n = 3-4 per concentration). Controls consisted of untreated wells and cultures similarly treated with 10 μM […] and 0.1 μM posaconazole.

Another data set deals with T5, Cathepsin L (Homo sapiens, UniProt P07711).
T5 construct: Reaction Biology Corp (screening service)
T5 sequence (P07711 114-333, species assumed): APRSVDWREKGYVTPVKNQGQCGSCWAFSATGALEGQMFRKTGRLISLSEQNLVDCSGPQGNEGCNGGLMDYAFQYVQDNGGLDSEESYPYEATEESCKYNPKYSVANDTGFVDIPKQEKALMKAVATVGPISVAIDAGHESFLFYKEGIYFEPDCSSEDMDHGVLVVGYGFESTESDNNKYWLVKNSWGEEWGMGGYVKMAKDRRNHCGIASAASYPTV
Nature of the data set: Protease inhibition profiling (Reaction Biology Corp): Cathepsin L. In kind it is biochemical.

As usually defined, the NOAEL is the highest tested level that showed no adverse finding. By IC50 is commonly meant the concentration needed to halve the response being measured. Broadly, the Vd is a proportionality between amount in the body and measured concentration, not a real space. A lower Vd goes with confinement near the circulation. What is called clearance is the rate of elimination divided by the concentration. A high value points to efficient removal. For orientation: half-life means the time in which the quantity being followed falls by half. In general, bioavailability refers to the share of a dose that reaches the circulation, judged against a reference dose that is usually intravenous. In general, inhibition refers to the change of the read-out against control, counted positive when it falls. One may read the EC50 as the midpoint of the concentration-response curve.

The structures appear in SMILES notation. Some results are limits rather than exact numbers.

T1 sequence (O60911 114-334, species assumed): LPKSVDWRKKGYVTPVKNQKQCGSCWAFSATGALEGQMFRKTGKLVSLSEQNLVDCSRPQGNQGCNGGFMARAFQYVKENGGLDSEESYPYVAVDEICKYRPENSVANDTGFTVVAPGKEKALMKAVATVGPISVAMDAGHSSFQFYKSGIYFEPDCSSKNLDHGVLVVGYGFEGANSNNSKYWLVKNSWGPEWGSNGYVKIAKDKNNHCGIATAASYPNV

As to `CN1CCN(C(=O)N[C@@H](CCCNC(=N)N)C(=O)N[C@H](/C=C/S(=O)(=O)c2ccccc2)CCc2ccccc2)CC1` [WRR-483], the NOAEL in [1] is greater than 100 mg/kg. Moreover, the IC50 stood at 335 ± 4 nM on Cathepsin V, 3.9 ± 0.1 nM against Cathepsin B and 53 ± 4 nM against Cathepsin L. In [2] (10 mg dose iv), the Vd came out at 15.1 L/kg. In data set [2] (10 mg dose iv), the clearance was found to be 27.5 mL/min/kg. Besides, the half-life in [2] (10 mg dose iv) is 6.4 h. Besides, in data set [2] (oral, read-out: oral bioavailability %F), the bioavailability is less than 1%. Moreover, the “inhibition of tbcatB (in words)” value at tbcatB is recorded as “weak inhibitors”. The inhibition at 1 µM at tbcatB (read-out: tbcatB % inhibition at 1 µM, 1 µM inhibitor) stood at 26%. Further, the “inhibition of EhCP1” value in the data set with EhCP1 was “potent inhibitor”. In addition, the “k obs/[I] at 1 µM, Rhodesain” value on Rhodesain (100 mM sodium acetate pH 5.5, 5 mM DTT) is listed as “No inhibition”. Moreover, at Rhodesain (even at 10 µM concentration), the inhibition of rhodesain entry is “no inhibition”. Moreover, in data set [3], a half-maximal effect (EC50) was put at 200 nM.

(Values after article PMC2939063, “In Vitro and In Vivo Studies of the Trypanocidal Properties of WRR-483 against Trypanosoma cruzi” (PLoS Neglected Tropical Diseases, 2010).)
